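Following 48 hours of exposure in 96-well plates, responses at five concentrations were used to interpolate endpoints linearly. TGI: concentration producing complete growth inhibition.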
Assays:
Assay in all cases: NCI-60 cell line screen, 48 h
OVCAR-3 ovarian = test system: OVCAR-3 ovarian
OVCAR-8 ovarian = test system: OVCAR-8 ovarian
SW-620 colon = test system: SW-620 colon
KM20L2 colon = test system: KM20L2 colon
UACC-257 melanoma = test system: UACC-257 melanoma
UO-31 renal = test system: UO-31 renal
TK-10 renal = test system: TK-10 renal
KM12 colon = test system: KM12 colon
U251 CNS = test system: U251 CNS
A549 NSCLC = test system: A549 NSCLC
DLD-1 colon = test system: DLD-1 colon
NCI-H23 lung = test system: NCI-H23 lung
SF-539 CNS = test system: SF-539 CNS
M14 melanoma = test system: M14 melanoma
SN12C renal = test system: SN12C renal
SF-295 CNS = test system: SF-295 CNS
SK-MEL-28 melanoma = test system: SK-MEL-28 melanoma
UACC-62 melanoma = test system: UACC-62 melanoma
OVCAR-4 ovarian = test system: OVCAR-4 ovarian
SF-268 CNS = test system: SF-268 CNS
HL-60(TB) leukemia = test system: HL-60(TB) leukemia
HOP-92 NSCLC = test system: HOP-92 NSCLC
SK-MEL-5 melanoma = test system: SK-MEL-5 melanoma
SNB-75 CNS = test system: SNB-75 CNS
EKVX NSCLC = test system: EKVX NSCLC
XF 498 CNS = test system: XF 498 CNS
RPMI-8226 leukemia = test system: RPMI-8226 leukemia
M19-MEL melanoma = test system: M19-MEL melanoma
MALME-3M melanoma = test system: MALME-3M melanoma
LXFL 529 NSCLC = test system: LXFL 529 NSCLC
COLO 205 colon = test system: COLO 205 colon
HCT-15 colon = test system: HCT-15 colon
MOLT-4 leukemia = test system: MOLT-4 leukemia
DMS 273 small cell lung = test system: DMS 273 small cell lung
DMS 114 small cell lung = test system: DMS 114 small cell lung
786-0 renal = test system: 786-0 renal
HOP-62 NSCLC = test system: HOP-62 NSCLC
SNB-78 CNS = test system: SNB-78 CNS
SNB-19 CNS = test system: SNB-19 CNS
NCI-H460 lung = test system: NCI-H460 lung
HT29 colon = test system: HT29 colon
NCI-H522 lung = test system: NCI-H522 lung
RXF 393 renal = test system: RXF 393 renal
OVCAR-5 ovarian = test system: OVCAR-5 ovarian
HCC-2998 colon = test system: HCC-2998 colon
CCRF-CEM leukemia = test system: CCRF-CEM leukemia
SK-MEL-2 melanoma = test system: SK-MEL-2 melanoma
IGROV1 ovarian = test system: IGROV1 ovarian
HCT-116 colon = test system: HCT-116 colon
ACHN renal = test system: ACHN renal
CAKI-1 renal = test system: CAKI-1 renal
SK-OV-3 ovarian = test system: SK-OV-3 ovarian
LOX IMVI melanoma = test system: LOX IMVI melanoma
HOP-18 NSCLC = test system: HOP-18 NSCLC

SMILES: CCc1cc2c(O)c(c1)Cc1cc(CC)cc(c1O)Cc1cc(CC)cc(c1O)Cc1cc(CC)cc(c1O)Cc1cc(CC)cc(c1O)Cc1cc(CC)cc(c1O)Cc1cc(CC)cc(c1O)C2
- TGI (OVCAR-3 ovarian): > 100 µM
- TGI (OVCAR-8 ovarian): > 100 µM
- TGI (SW-620 colon): > 100 µM
- TGI (KM20L2 colon): > 100 µM
- TGI (UACC-257 melanoma): > 100 µM
- TGI (UO-31 renal): > 100 µM
- TGI (TK-10 renal): > 100 µM
- TGI (KM12 colon): > 100 µM
- TGI (U251 CNS): > 100 µM
- TGI (A549 NSCLC): > 100 µM
- TGI (DLD-1 colon): > 100 µM
- TGI (NCI-H23 lung): > 100 µM
- TGI (SF-539 CNS): > 100 µM
- TGI (M14 melanoma): > 100 µM
- TGI (SN12C renal): > 100 µM
- TGI (SF-295 CNS): > 100 µM
- TGI (SK-MEL-28 melanoma): > 100 µM
- TGI (UACC-62 melanoma): > 100 µM
- TGI (OVCAR-4 ovarian): > 100 µM
- TGI (SF-268 CNS): > 100 µM
- TGI (HL-60(TB) leukemia): > 100 µM
- TGI (HOP-92 NSCLC): > 100 µM
- TGI (SK-MEL-5 melanoma): > 100 µM
- TGI (SNB-75 CNS): 61.4 µM
- TGI (EKVX NSCLC): > 100 µM
- TGI (XF 498 CNS): > 100 µM
- TGI (RPMI-8226 leukemia): > 100 µM
- TGI (M19-MEL melanoma): > 100 µM
- TGI (MALME-3M melanoma): > 100 µM
- TGI (LXFL 529 NSCLC): > 100 µM
- TGI (COLO 205 colon): > 100 µM
- TGI (HCT-15 colon): > 100 µM
- TGI (MOLT-4 leukemia): > 100 µM
- TGI (DMS 273 small cell lung): > 100 µM
- TGI (DMS 114 small cell lung): > 100 µM
- TGI (786-0 renal): > 100 µM
- TGI (HOP-62 NSCLC): > 100 µM
- TGI (SNB-78 CNS): > 100 µM
- TGI (SNB-19 CNS): 71.7 µM
- TGI (NCI-H460 lung): > 100 µM
- TGI (HT29 colon): > 100 µM
- TGI (NCI-H522 lung): > 100 µM
- TGI (RXF 393 renal): 43.3 µM
- TGI (OVCAR-5 ovarian): > 100 µM
- TGI (HCC-2998 colon): > 100 µM
- TGI (CCRF-CEM leukemia): > 100 µM
- TGI (SK-MEL-2 melanoma): > 100 µM
- TGI (IGROV1 ovarian): > 100 µM
- TGI (HCT-116 colon): > 100 µM
- TGI (ACHN renal): > 100 µM

SMILES: CC(C)COC1Sc2ccccc2S1
- TGI (OVCAR-3 ovarian): 34.2 µM
- TGI (CAKI-1 renal): 52.4 µM
- TGI (OVCAR-8 ovarian): > 100 µM
- TGI (SW-620 colon): 88.3 µM
- TGI (SK-OV-3 ovarian): 43.2 µM
- TGI (KM20L2 colon): 36.2 µM
- TGI (UO-31 renal): 29.4 µM
- TGI (TK-10 renal): 43 µM
- TGI (U251 CNS): 35.9 µM
- TGI (A549 NSCLC): 46.6 µM
- TGI (DLD-1 colon): 35.1 µM
- TGI (NCI-H23 lung): 53.4 µM
- TGI (M14 melanoma): 52.4 µM
- TGI (SN12C renal): 36.2 µM
- TGI (SF-295 CNS): 31.3 µM
- TGI (SK-MEL-28 melanoma): 33.7 µM
- TGI (UACC-62 melanoma): 25.8 µM
- TGI (OVCAR-4 ovarian): 53.4 µM
- TGI (SF-268 CNS): 66.3 µM
- TGI (HOP-92 NSCLC): 28.1 µM
- TGI (SNB-75 CNS): 6.36 µM
- TGI (EKVX NSCLC): 38.1 µM
- TGI (RPMI-8226 leukemia): > 100 µM
- TGI (MALME-3M melanoma): 57.2 µM
- TGI (LXFL 529 NSCLC): 49.3 µM
- TGI (COLO 205 colon): 89.2 µM
- TGI (HCT-15 colon): 66 µM
- TGI (MOLT-4 leukemia): > 100 µM
- TGI (DMS 273 small cell lung): 43.1 µM
- TGI (LOX IMVI melanoma): 37.9 µM
- TGI (DMS 114 small cell lung): 39.1 µM
- TGI (786-0 renal): 50 µM
- TGI (HOP-62 NSCLC): 41.3 µM
- TGI (SNB-78 CNS): 65.1 µM
- TGI (SNB-19 CNS): 32.8 µM
- TGI (NCI-H460 lung): 24.6 µM
- TGI (HT29 colon): 36.6 µM
- TGI (RXF 393 renal): 34.6 µM
- TGI (HCC-2998 colon): 45.3 µM
- TGI (CCRF-CEM leukemia): > 100 µM
- TGI (HOP-18 NSCLC): 30.2 µM
- TGI (IGROV1 ovarian): 32.3 µM
- TGI (ACHN renal): 30 µM

Source: PubChem BioAssay (NCI)
